In PubChem BioAssay (NCI):
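Tested at 5 concentrations; 48 h exposure; 96-well plates; endpoints linearly interpolated, else capped at highest concentration. GI50 marks 50% less growth. Definition used: TGI = concentration required for complete inhibition of growth.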

Columns and labels:
Experiment in all cases: NCI-60 cell line screen, 48 h
A498 renal = test system: A498 renal
HCT-15 colon = test system: HCT-15 colon
SW-620 colon = test system: SW-620 colon
NCI-H460 lung = test system: NCI-H460 lung
NCI/ADR-RES ovarian = test system: NCI/ADR-RES ovarian
HCT-116 colon = test system: HCT-116 colon
RXF 393 renal = test system: RXF 393 renal
SF-539 CNS = test system: SF-539 CNS
EKVX NSCLC = test system: EKVX NSCLC
U251 CNS = test system: U251 CNS
PC-3 prostate = test system: PC-3 prostate
M14 melanoma = test system: M14 melanoma
A549 NSCLC = test system: A549 NSCLC
SK-OV-3 ovarian = test system: SK-OV-3 ovarian
OVCAR-5 ovarian = test system: OVCAR-5 ovarian
786-0 renal = test system: 786-0 renal
HT29 colon = test system: HT29 colon
SK-MEL-5 melanoma = test system: SK-MEL-5 melanoma
OVCAR-8 ovarian = test system: OVCAR-8 ovarian
CAKI-1 renal = test system: CAKI-1 renal
NCI-H522 lung = test system: NCI-H522 lung
SR leukemia = test system: SR leukemia
KM12 colon = test system: KM12 colon
NCI-H23 lung = test system: NCI-H23 lung
SNB-19 CNS = test system: SNB-19 CNS
HCC-2998 colon = test system: HCC-2998 colon
IGROV1 ovarian = test system: IGROV1 ovarian
HOP-62 NSCLC = test system: HOP-62 NSCLC
MOLT-4 leukemia = test system: MOLT-4 leukemia
SN12C renal = test system: SN12C renal
BT-549 breast = test system: BT-549 breast
COLO 205 colon = test system: COLO 205 colon
K-562 leukemia = test system: K-562 leukemia
OVCAR-4 ovarian = test system: OVCAR-4 ovarian
SF-295 CNS = test system: SF-295 CNS
MDA-MB-435 = test system: MDA-MB-435
SF-268 CNS = test system: SF-268 CNS
MCF7 breast = test system: MCF7 breast
MALME-3M melanoma = test system: MALME-3M melanoma
TK-10 renal = test system: TK-10 renal
MDA-MB-231 breast = test system: MDA-MB-231 breast
HL-60(TB) leukemia = test system: HL-60(TB) leukemia
SNB-75 CNS = test system: SNB-75 CNS
UACC-62 melanoma = test system: UACC-62 melanoma
NCI-H226 lung = test system: NCI-H226 lung
HOP-92 NSCLC = test system: HOP-92 NSCLC
LOX IMVI melanoma = test system: LOX IMVI melanoma
T-47D breast = test system: T-47D breast
OVCAR-3 ovarian = test system: OVCAR-3 ovarian
UACC-257 melanoma = test system: UACC-257 melanoma
UO-31 renal = test system: UO-31 renal
SK-MEL-28 melanoma = test system: SK-MEL-28 melanoma
CCRF-CEM leukemia = test system: CCRF-CEM leukemia
DU-145 prostate = test system: DU-145 prostate
ACHN renal = test system: ACHN renal
RPMI-8226 leukemia = test system: RPMI-8226 leukemia

Which results are given for `O=c1c(O)cccn1CCCN(CCCn1cccc(O)c1=O)CCn1cccc(O)c1=O`?
GI50 (A498 renal): 22.9 µM; TGI (A498 renal): > 100 µM; GI50 (HCT-15 colon): 10.3 µM; TGI (HCT-15 colon): > 100 µM; GI50 (SW-620 colon): 9.02 µM; TGI (SW-620 colon): > 100 µM; GI50 (NCI-H460 lung): 2.36 µM; TGI (NCI-H460 lung): > 100 µM; GI50 (NCI/ADR-RES ovarian): > 100 µM; TGI (NCI/ADR-RES ovarian): > 100 µM; GI50 (HCT-116 colon): 2.85 µM; TGI (HCT-116 colon): > 100 µM; GI50 (RXF 393 renal): 1.86 µM; TGI (RXF 393 renal): 9.83 µM; GI50 (SF-539 CNS): 3.12 µM; TGI (SF-539 CNS): > 100 µM; GI50 (EKVX NSCLC): 2.79 µM; TGI (EKVX NSCLC): > 100 µM; GI50 (U251 CNS): 1.84 µM; TGI (U251 CNS): > 100 µM; GI50 (PC-3 prostate): > 100 µM; TGI (PC-3 prostate): > 100 µM; GI50 (M14 melanoma): 5.41 µM; TGI (M14 melanoma): 60.2 µM; GI50 (A549 NSCLC): 4.03 µM; TGI (A549 NSCLC): 75.2 µM; GI50 (SK-OV-3 ovarian): 3.37 µM; TGI (SK-OV-3 ovarian): > 100 µM; GI50 (OVCAR-5 ovarian): > 100 µM; TGI (OVCAR-5 ovarian): > 100 µM; GI50 (786-0 renal): 7.81 µM; TGI (786-0 renal): > 100 µM; GI50 (HT29 colon): 29.5 µM; TGI (HT29 colon): > 100 µM; GI50 (SK-MEL-5 melanoma): 2.67 µM; TGI (SK-MEL-5 melanoma): > 100 µM; GI50 (OVCAR-8 ovarian): 2.26 µM; TGI (OVCAR-8 ovarian): > 100 µM; GI50 (CAKI-1 renal): 4.79 µM; TGI (CAKI-1 renal): > 100 µM; GI50 (NCI-H522 lung): 7.35 µM; TGI (NCI-H522 lung): > 100 µM; GI50 (SR leukemia): 0.522 µM; TGI (SR leukemia): > 100 µM; GI50 (KM12 colon): 3.12 µM; TGI (KM12 colon): > 100 µM; GI50 (NCI-H23 lung): 21.1 µM; TGI (NCI-H23 lung): > 100 µM; GI50 (SNB-19 CNS): 3.78 µM; TGI (SNB-19 CNS): > 100 µM; GI50 (HCC-2998 colon): 5.18 µM; TGI (HCC-2998 colon): > 100 µM; GI50 (IGROV1 ovarian): 23.6 µM; TGI (IGROV1 ovarian): > 100 µM; GI50 (HOP-62 NSCLC): 4.35 µM; TGI (HOP-62 NSCLC): > 100 µM; GI50 (MOLT-4 leukemia): 1.79 µM; TGI (MOLT-4 leukemia): > 100 µM; GI50 (SN12C renal): 3.41 µM; TGI (SN12C renal): > 100 µM; GI50 (BT-549 breast): 10.5 µM; TGI (BT-549 breast): > 100 µM; GI50 (COLO 205 colon): 21.6 µM; TGI (COLO 205 colon): > 100 µM; GI50 (K-562 leukemia): 3.97 µM; TGI (K-562 leukemia): > 100 µM; GI50 (OVCAR-4 ovarian): 3.95 µM; TGI (OVCAR-4 ovarian): > 100 µM; GI50 (SF-295 CNS): 3.63 µM; TGI (SF-295 CNS): > 100 µM; GI50 (MDA-MB-435): 3.46 µM; TGI (MDA-MB-435): > 100 µM; GI50 (SF-268 CNS): 1.9 µM; TGI (SF-268 CNS): > 100 µM; GI50 (MCF7 breast): 3.89 µM; TGI (MCF7 breast): > 100 µM; GI50 (MALME-3M melanoma): 9.72 µM; TGI (MALME-3M melanoma): 85.9 µM; GI50 (TK-10 renal): 7.92 µM; TGI (TK-10 renal): > 100 µM; GI50 (MDA-MB-231 breast): 8.28 µM; TGI (MDA-MB-231 breast): > 100 µM; GI50 (HL-60(TB) leukemia): 5.54 µM; TGI (HL-60(TB) leukemia): 55.3 µM; GI50 (SNB-75 CNS): 6.1 µM; TGI (SNB-75 CNS): 88.2 µM; GI50 (UACC-62 melanoma): 2.14 µM; TGI (UACC-62 melanoma): 76 µM; GI50 (NCI-H226 lung): 2.27 µM; TGI (NCI-H226 lung): 61.8 µM; GI50 (HOP-92 NSCLC): 6.1 µM; TGI (HOP-92 NSCLC): > 100 µM; GI50 (LOX IMVI melanoma): 2.13 µM; TGI (LOX IMVI melanoma): > 100 µM; GI50 (T-47D breast): 5.64 µM; TGI (T-47D breast): > 100 µM; GI50 (OVCAR-3 ovarian): 3.39 µM; TGI (OVCAR-3 ovarian): > 100 µM; GI50 (UACC-257 melanoma): 3.42 µM; TGI (UACC-257 melanoma): 22.4 µM; GI50 (UO-31 renal): 7.6 µM; TGI (UO-31 renal): > 100 µM; GI50 (SK-MEL-28 melanoma): 2.31 µM; TGI (SK-MEL-28 melanoma): > 100 µM; GI50 (CCRF-CEM leukemia): 0.386 µM; TGI (CCRF-CEM leukemia): 3.79 µM; GI50 (DU-145 prostate): 20.1 µM; TGI (DU-145 prostate): > 100 µM; GI50 (ACHN renal): 7.15 µM; TGI (ACHN renal): > 100 µM; GI50 (RPMI-8226 leukemia): 1.99 µM; TGI (RPMI-8226 leukemia): > 100 µM
